Measured values published in patent US20250222082A1, “PROTEIN AND PEPTIDE VACCINES TARGETING METHANOGENS” (Arkea Bio Corp., priority 2024, published 2025).
Read-outs that look alike come from different tables or passages of the source.

What was measured:
[1] = buffer, 24 h
Procedure: (§1) The solution was then placed in an ultrasonic bath for ˜4 hr and then allowed to equilibrate over 24 h.

[2] = Adsorbent study: reduction of 3NOP concentration in solution (HPLC 230 nm); conditions: 0.2 g of adsorbent in 10 mL of 1% 3NOP/H2O; 24 h; control 8.258 mM
Procedure: as §1

[3] = tested on: methane production; conditions: cited from earlier work
[4] = tested on: Mbb. ruminantium, Ms. mazei, and Mm. mobile; conditions: cited from earlier work
[5] = 3NOP pH and temperature stability (HPLC); assay type: physicochemical; conditions: 1-month time period, 4-30 C, pH 4-10
Excerpt: 3NOP pH and Temperature Stability: Confirmed via HPLC over a 1-month time period at temperature between 4-30 C and pH 4-10.

[6] = 3NOP volatility (mass loss in open vial); assay type: physicochemical; conditions: 500 mg in 5 dram vial open to air, ˜18-24 C, 15-30% RH, 6 days
Procedure: 3NOP Volatility: 500 mg of 3NOP in a 5 dram vial was left open to air at ˜18-24 C at 15-30% RH over the course of 6 days. Average mass loss is ˜0.25% per day.

N=C(N)NCCC[C@H](N)C(=O)O [Arginine]
3NOP concentration remaining in solution ([1]; 50 mg/mL): 19.782 mM

Cyclodextrin
3NOP concentration remaining in solution [2]: 7.676 mM

O=C([O-])CC(O)(CC(=O)[O-])C(=O)[O-].[Bi+3] [Bismuth Citrate]
3NOP concentration remaining in solution [2]: 8.072 mM

O=[N+]([O-])O [Nitrate]
maximum methane suppression amount ([3]; 5 mM): 5 mM; 43.26% Lin rt al., 2017)
maximum methane suppression amount ([3]; 5 mmol/L): 5 mmol/L; 32.92%
maximum methane suppression amount ([3]; 20 mg/g dry matter): 20 mg/g dry matter; 21%

O=S(=O)(O)CCCBr [BPS, 3-bromopropanesulfonate]
sensitivity of methanogens in pure cultures ([4]; up to 250 μmol/L, all three species): resistant

O=[N+]([O-])OCCCO [Group 3NOP, 3-Nitrooxypropanol]
3NOP pH and Temperature Stability [5]: Confirmed
3NOP Volatility: average mass loss [6]: ~0.25 % per day
maximum methane suppression amount ([3]; 60 mg/kg of feed dry matter): 26%/day (Melgar et al., 2020)

O=S(=O)([O-])[O-].O=S(=O)([O-])[O-].O=S(=O)([O-])[O-].[Bi+3].[Bi+3] [Bismuth Sulfate]
3NOP concentration remaining in solution [2]: 8.079 mM

O=S(=O)([O-])[O-].[Cu+2] [Copper Sulfate]
3NOP concentration remaining in solution [2]: 7.814 mM

NCCCC[C@H](N)C(=O)O [Lysine]
3NOP concentration remaining in solution ([1]; 50 mg/mL): 18.583 mM

NC(=O)CC[C@H](N)C(=O)O [Glutamine]
3NOP concentration remaining in solution ([1]; 20 mg/mL): 7.588 mM

O=c1[nH]c(=O)c2nccnc2[nH]1 [lumazin, 2,4-pteridinedione]
CH4 production by Mbb. ruminantium, Ms. mazei, and Mm. mobile ([4]; dose-dependent from 0.06 to 0.24 mmol/L): significantly decreased
